Common to all, as to format: cell-based, mouse
One test concerns TPPII. In words: Western blotting of TPPII expression in gamma-irradiated EL-4 cells. To be noted: wortmannin treated gamma-irradiated EL-4 cells, 25 micro-M NLVS. The text has this:
(§1) Cells and Culture Conditions. EL-4 is a Benzpyrene-induced lymphoma cell line derived from the C57BI/6 mouse strain. EL-4.wt and EL-4.TPPII^i are EL-4 cells transfected with the pSUPER vector (Brummelkamp, T R, Bernards, R, Agami, R. A system for stable expression of short interfering RNAs in mammalian cells. Science 2002; 296:550-3), empty versus containing the siRNA directed against TPPII. HeLa cells are human cervical carcinoma cells. YAC-1 is a Moloney Leukemia Virus-induced lymphoma cell line derived from the A/Sn mouse strain. ALC is a T cell lymphoma induced by radiation leukemia virus D-RadLV, derived from the C57Bl/6 mouse strain. […]
(§2) Antibodies and Antisera. The following molecules were detected by the antibodies specified: Akt by rabbit anti-Akt serum (Cell Signaling Technology, Beverly, Mass.); Phospho-Akt (Ser 473) by 193H2 rabbit anti-phospho-Akt serum (Cell Signaling Technology, Beverly, Mass.); gamma-H2AX by rabbit anti-gamma-H2AX (Cell Signalling Technology, Beverly, Mass.); Mre11 by polyclonal rabbit anti-human Mre11 (Cell Signalling Technology, Beverly, Mass.); p21 by SX118 (R & D Systems, Minneapolis, Minn.); p53 (R & D Systems, Minneapolis, Minn.); Rae-1 by monoclonal Rat anti-mouse Rae-1, 199215 (R &D Systems, Minneapolis, Minn.); XIAP by monoclonal mouse anti-human XIAP, 117320 (R&D Systems, Minneapolis, Minn.). […]
(Immunoblotting shows a protein as a band on a membrane.)

In test [1] the test system is p53. Description: Western blotting of p53-immunoprecipitates from EL-4 cell lysates. To be noted: NLVS-treated EL-4.TPPIIi cells. From the text: Antibodies and Antisera. The following molecules were detected by the antibodies specified: Akt by rabbit anti-Akt serum (Cell Signaling Technology, Beverly, Mass.); Phospho-Akt (Ser 473) by 193H2 rabbit anti-phospho-Akt serum (Cell Signaling Technology, Beverly, Mass.); gamma-H2AX by rabbit anti-gamma-H2AX (Cell Signalling Technology, Beverly, Mass.); Mre11 by polyclonal rabbit anti-human Mre11 (Cell Signalling Technology, Beverly, Mass.); p21 by SX118 (R & D Systems, Minneapolis, Minn.); p53 (R & D Systems, Minneapolis, Minn.); Rae-1 by monoclonal Rat anti-mouse Rae-1, 199215 (R &D Systems, Minneapolis, Minn.); XIAP by monoclonal mouse anti-human XIAP, 117320 (R&D Systems, Minneapolis, Minn.). For detection of TPPII we used chicken anti-TPPII serum (Immunsystem, Uppsala, Sweden). Western blotting was performed by standard techniques. Protein concentration was measured by BCA Protein Assay Reagent (Pierce Chemical Co.). 5 micro-g of protein was loaded per lane for separation by SDS/PAGE unless stated otherwise.

Test [2] concerns p53. In words: Western blotting of p53 expression in gamma-irradiated EL-4.TPPIIi cells. To be noted: gamma-irradiated EL-4.TPPIIi cells treated with NLVS.
Excerpt: as §1, §2

As for `CC(C)C[C@@H](/C=C/S(C)(=O)=O)NC(=O)[C@H](CC(C)C)NC(=O)[C@H](CC(C)C)NC(=O)Cc1cc(I)c(O)c([N+](=O)[O-])c1` [NLVS, 4-hydroxy-5-iodo-3-nitrophenylacetyl-Leu-Leu-Leu-vinyl sulphone], in the test on TPPII, the “down regulation of TPPII” value is recorded as “inhibited down regulation of TPPII”. In the test on p53 [1], the “ATM, 53BP1 and Mre11 in p53-immunoprecipitates” value was “failed to show ATM, 53BP1 and Mre11”. In the test on p53 [2], the p53 expression entry is “increased p53 expression”.

Source of the values: US20100168038A1, “USE OF COMPOUNDS IN COMBINATION WITH GAMMA-IRRADIATION FOR THE TREATMENT OF CANCER” (priority 2006, published 2010).
